Laboratory results reported in US20230158041A1, “METHODS AND COMPOSITIONS FOR TREATING AUTOSOMAL DOMINANT POLYCYSTIC KIDNEY DISEASE” (OTSUKA PHARMACEUTICAL CO.,LTD., priority 2021, published 2023).
“Also recorded” adds a separate entry of the source. Marks after values point to notes of the source that are not given here. Each block holds one molecule with its values, some of them ahead of it.

Key:
[1] = target: T1, (OAT)3 (Homo sapiens, UniProt Q8TCC7); test: Trial 2: (OAT)3 inhibition, furosemide in presence of DM-4103 vs. furosemide alone; assay type: in vivo; set-up: endogenous in cells; host or cells: healthy human subjects, in vivo; settings: furosemide 48 hours following 7 days of 300 mg tolvaptan q.d.
T1 sequence (Q8TCC7 1-542): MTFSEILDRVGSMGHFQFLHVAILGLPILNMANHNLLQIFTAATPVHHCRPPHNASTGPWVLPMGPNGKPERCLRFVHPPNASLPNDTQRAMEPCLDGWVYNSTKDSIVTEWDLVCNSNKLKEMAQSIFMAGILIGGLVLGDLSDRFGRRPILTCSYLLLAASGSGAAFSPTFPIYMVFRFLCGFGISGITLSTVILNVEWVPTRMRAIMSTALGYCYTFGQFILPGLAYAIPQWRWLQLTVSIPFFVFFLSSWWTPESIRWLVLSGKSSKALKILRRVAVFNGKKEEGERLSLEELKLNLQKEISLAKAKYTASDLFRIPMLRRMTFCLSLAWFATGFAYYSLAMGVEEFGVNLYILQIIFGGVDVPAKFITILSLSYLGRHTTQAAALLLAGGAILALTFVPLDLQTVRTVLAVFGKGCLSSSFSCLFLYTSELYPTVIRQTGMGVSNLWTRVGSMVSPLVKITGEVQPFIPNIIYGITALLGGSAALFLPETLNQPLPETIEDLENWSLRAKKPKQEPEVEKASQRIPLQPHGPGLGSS

[2] = target: T2, human (OATP)1B1 (Homo sapiens, UniProt Q9Y6L6)
T2 sequence (Q9Y6L6 1-691): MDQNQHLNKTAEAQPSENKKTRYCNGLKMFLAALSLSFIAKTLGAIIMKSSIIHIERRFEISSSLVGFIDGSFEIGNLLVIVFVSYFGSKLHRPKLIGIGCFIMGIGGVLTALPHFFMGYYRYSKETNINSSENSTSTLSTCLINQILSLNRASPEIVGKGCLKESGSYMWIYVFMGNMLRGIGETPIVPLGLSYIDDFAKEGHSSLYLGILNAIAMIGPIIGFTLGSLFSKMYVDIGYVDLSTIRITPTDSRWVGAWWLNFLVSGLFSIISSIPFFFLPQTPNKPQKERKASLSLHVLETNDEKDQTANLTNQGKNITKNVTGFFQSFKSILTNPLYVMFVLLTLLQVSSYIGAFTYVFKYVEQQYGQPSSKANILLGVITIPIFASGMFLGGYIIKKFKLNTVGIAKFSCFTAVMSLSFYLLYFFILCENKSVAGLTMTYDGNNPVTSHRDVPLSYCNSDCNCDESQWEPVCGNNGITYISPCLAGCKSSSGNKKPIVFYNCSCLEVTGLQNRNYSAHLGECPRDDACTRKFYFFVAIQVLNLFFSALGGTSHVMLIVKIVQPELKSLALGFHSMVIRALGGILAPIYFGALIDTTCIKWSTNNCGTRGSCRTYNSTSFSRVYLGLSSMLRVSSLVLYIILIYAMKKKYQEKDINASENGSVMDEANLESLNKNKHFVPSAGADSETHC
Procedure: (OATP)1B1: Estradiol 17β-D-glucuronide transport was evaluated in HEK293 cells stably expressing human (OATP)1B1 (kit with ready to use 24 well plates were obtained from GenoMembrane). […] DM-4103 concentrations of 0.064, 0.32, 1.6, 8.0, 40, and 200 μM were tested.

[3] = Earlier clinical data for tolvaptan and DM-4103 (PK, tolerability; data on file); assay type: in vivo, human
[4] = system: plasma protein; test: DM-4103 plasma protein binding, micropartition device (Centrifree YM-30) with HPLC-MS/MS; assay type: in vitro ADME
Procedure: The effect of six other highly plasma protein bound compounds on DM-4103 binding was also evaluated. […] No potential for interaction at either transporter would have been predicted if a free fraction of 0.1% had been used, consistent with the clinical findings.

[5] = target: T1, (OAT)3; test: Estrone 3-sulfate transport inhibition in HEK293 cells stably expressing human (OAT)3; assay type: cell-based; set-up: host or cells: HEK293
Procedure: (OAT)3: Estrone 3-sulfate transport was evaluated in HEK293 cells stably expressing human (OAT)3 (kit with ready to use 24 well plates were obtained from GenoMembrane). […] DM-4103 concentrations of 0.064, 0.32, 1.6, 8.0, 40, and 200 μM were tested.

[6] = Trial 1: plasma rosuvastatin PK, tolvaptan and DM-4103 plasma concentrations, adverse events in healthy subjects
Procedure: (§1) Trial 1 was designed as an open-label, 3-period, sequential crossover. […] On days 7 to 13, 300 mg tolvaptan was administered q.d.
Doses on pharmacokinetic (PK) sampling days were administered in the fasted state with 240 ml of room temperature still water. No food was allowed from 10 h prior to dosing until lunch was given following the 4 h post-dose assessments; water was available ad libitum except for +/−2 h around dosing. On non-PK sampling days, tolvaptan was administered at least 30 min prior to breakfast. Safety was evaluated by laboratory values, vital signs, and 12-lead electrocardiogram (ECG) at screening, day 1, and discharge (no ECG), and adverse event reports.
A 90 mg dose of tolvaptan was chosen as it is the highest dose administered at any given time in the treatment of ADPKD.
The assay used to determine plasma tolvaptan concentrations also included DM-4103 as a standard. The precursor→production was m/z 479→252.

[7] = in vivo; cited from earlier work
[8] = target: T3, sodium-dependent tauro-cholate co-transporting polypeptide (NTCP) (Homo sapiens, UniProt Q14973); settings: cited from earlier work
T3 sequence (Q14973 1-349): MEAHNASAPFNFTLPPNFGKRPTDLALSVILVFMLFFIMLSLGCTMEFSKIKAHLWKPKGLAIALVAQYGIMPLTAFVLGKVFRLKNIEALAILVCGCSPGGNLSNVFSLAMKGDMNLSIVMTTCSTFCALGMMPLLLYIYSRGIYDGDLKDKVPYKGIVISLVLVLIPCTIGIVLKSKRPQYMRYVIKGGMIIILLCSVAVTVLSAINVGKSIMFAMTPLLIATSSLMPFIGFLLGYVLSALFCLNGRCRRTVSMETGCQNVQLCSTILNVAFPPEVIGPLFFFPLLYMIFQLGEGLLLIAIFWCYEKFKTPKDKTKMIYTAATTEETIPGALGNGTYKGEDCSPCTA

[9] = Phase III ADPKD trials: statin use with tolvaptan; assay type: in vivo, human; settings: subjects taking tolvaptan alone or tolvaptan plus statins
[10] = Tolvaptan solubility; assay type: physicochemical; settings: pH independent
[11] = target: T4, BCRP (Homo sapiens, UniProt Q9UNQ0); test: Trial 1: BCRP inhibition, rosuvastatin + tolvaptan vs. rosuvastatin alone; assay type: in vivo; set-up: endogenous in cells; host or cells: healthy human subjects, in vivo; settings: 90 mg tolvaptan with 5 mg rosuvastatin calcium
T4 sequence (Q9UNQ0 1-655): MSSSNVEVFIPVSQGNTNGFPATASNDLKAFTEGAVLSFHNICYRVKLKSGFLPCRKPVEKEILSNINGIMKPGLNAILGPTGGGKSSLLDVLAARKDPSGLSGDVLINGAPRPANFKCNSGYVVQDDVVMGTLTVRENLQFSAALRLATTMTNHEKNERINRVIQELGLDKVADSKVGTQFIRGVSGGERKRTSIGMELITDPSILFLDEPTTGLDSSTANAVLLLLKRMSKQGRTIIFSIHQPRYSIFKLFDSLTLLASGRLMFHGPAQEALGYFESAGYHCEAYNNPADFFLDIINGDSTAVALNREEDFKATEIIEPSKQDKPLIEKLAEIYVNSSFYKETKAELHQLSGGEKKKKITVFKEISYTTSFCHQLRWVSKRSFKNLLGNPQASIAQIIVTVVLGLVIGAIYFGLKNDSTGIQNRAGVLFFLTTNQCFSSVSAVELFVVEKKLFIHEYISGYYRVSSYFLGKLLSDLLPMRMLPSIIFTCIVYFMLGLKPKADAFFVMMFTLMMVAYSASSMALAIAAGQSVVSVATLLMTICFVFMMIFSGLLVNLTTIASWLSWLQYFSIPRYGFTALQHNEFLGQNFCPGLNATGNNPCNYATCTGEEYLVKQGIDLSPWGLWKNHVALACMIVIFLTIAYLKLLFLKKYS
Procedure: as §1
An analysis of variance with a factor of period and random effect of subjects was performed on the natural-log transformed PK parameters using the MIXED procedure in SAS. From each analysis, the least square means, their difference, and the 90% CI for their difference were derived. Then, the anti-logs of the difference and the confidence limits provided the estimate and 90% CI for the ratio of the geometric means of the test treatment to the reference treatment. Only subjects with values in both treatments were used in the analysis.

[12] = predicted; cited from earlier work
[13] = Phase II and III congestive heart failure trials: tolvaptan with furosemide; assay type: in vivo, human; settings: tolvaptan+furosemide compared with placebo+furosemide
[14] = target: T4, BCRP
Procedure: BCRP: Prazosin transport was evaluated in MDCKII BCRP-expressing cells (obtained from SOLVO Biotechnology) precultured for six to eight days.

[15] = system: sandwich-cultured human hepatocytes; settings: cited from earlier work
[16] = 300 mg tolvaptan for 5 days, healthy subjects; cited from earlier work

IC50 [2]: 255 nM
inhibitor of (OATP)1B1 in vitro [2]: inhibitor
plasma protein binding (PPB) [4]: greater than 99.8%
DM-4103 binding in presence of six other highly plasma protein bound compounds ([4]; all samples, no interactions detected): greater than 99.8%
IC50 ([5]; (OAT)3 overexpressing HEK293 cells, read-out: IC50 estimate, inhibition of estrone 3-sulfate transport): 425 nM
DM-4103 concentration at which the ratio is equal to 0.1 ([5]; Imax,u/IC50 for (OAT)3, fu,p 0.01): ~2034 ng/mL
inhibitor of (OAT)3 in vitro ([5]; in vitro): inhibitor
SMILES: Cc1ccccc1C(=O)Nc1ccc(C(=O)Nc2ccc(Cl)cc2C(=O)CCC(=O)O)c(C)c1 [DM-4103]
inhibition of (OAT)3 in healthy subjects [1]: No inhibition; also recorded: not an inhibitor
plasma concentrations ([3]; first 2 hours following a 90 mg tolvaptan dose): less than 100 ng/ml
elimination half-life ([3]; human, in vivo): ~180 h
time to steady-state concentrations after the start of tolvaptan dosing ([3]; human, in vivo): ~8 weeks

SMILES: CCCN(CCC)S(=O)(=O)c1ccc(C(=O)O)cc1 [Probenecid]
inhibition at 30 µM ([5]; HEK293, read-out: inhibition of estrone 3-sulfate transport): 91.1%

SMILES: CC(C)c1nc(N(C)S(C)(=O)=O)nc(-c2ccc(F)cc2)c1/C=C/[C@@H](O)C[C@@H](O)CC(=O)O [rosuvastatin]
Tmax ([6]; 5 mg ROS in presence of DM-4103, median): 4.00 h
Tmax ([6]; 5 mg rosuvastatin + 90 mg tolvaptan, median): 3.03 h
TEAE incidence: nausea ([6]; human, in vivo): 12.5%
AUCt ([6]; human, in vivo, 5 mg): 18.9 ng·h/mL
AUC∞ ([6]; human, in vivo, 5 mg): 20.3-36.0** ng*h/ml
Cmax ([6]; human, in vivo, 5 mg): 2.81 ng/mL
Tmax ([6]; human, in vivo, 5 mg): 3.50 h
t1/2, z ([6]; human, in vivo, 5 mg): 2.4-4.3** h
observed increases in rosuvastatin maximal peak plasma concentration (Cmax) [7]: up to 11 fold

solubility [10]: about 0.01 g/250 ml
inhibition of BCRP in healthy subjects [11]: No clinically-relevant inhibition
IC50 [14]: 8320 nM
Igut/IC50 (printed as predicted Ki) ([14]; human): 96.4
SMILES: Cc1ccccc1C(=O)Nc1ccc(C(=O)N2CCCC(O)c3cc(Cl)ccc32)c(C)c1 (stereo not shown) [tolvaptan, 7-chloro-5-hydroxy-1-[2-methyl-4-(2-methylbenzoylamino)benzoyl]-2,3,4,5-tetrahydro-1H-benzoazepine]
NTCP IC50 value relative to Cmax [8]: higher than Cmax
inhibitor of NTCP [8]: inhibitor of NTCP
statin use or incidences of statin-related adverse events [9]: no differences
liver:blood ratio [12]: 38.76
incidence of adverse events [13]: similar
half-life ([3]; human, in vivo): ~3.5 h
accumulation ([3]; steady-state concentrations achieved on day 1): no accumulation
accumulation in sandwich-cultured human hepatocytes [15]: at least 10 fold
safety and tolerability [16]: safe and well-tolerated
